Our source for the IC50 values is BindingDB's records for doi:10.1016/s0960-894x(04)00332-4 (Aventis Pharma, 2004).

Each structure is given as a SMILES string.

In one experiment the target is Beta-lactamase P99 (Enterobacter cloacae) (UniProt P05364). Briefly: Inhibition of hydrolysis of nitrocefin after 5 min pre-incubation with P99 beta-lactamases (class C).
Chain of Beta-lactamase P99 (Enterobacter cloacae) (P05364 whole entry, looked up): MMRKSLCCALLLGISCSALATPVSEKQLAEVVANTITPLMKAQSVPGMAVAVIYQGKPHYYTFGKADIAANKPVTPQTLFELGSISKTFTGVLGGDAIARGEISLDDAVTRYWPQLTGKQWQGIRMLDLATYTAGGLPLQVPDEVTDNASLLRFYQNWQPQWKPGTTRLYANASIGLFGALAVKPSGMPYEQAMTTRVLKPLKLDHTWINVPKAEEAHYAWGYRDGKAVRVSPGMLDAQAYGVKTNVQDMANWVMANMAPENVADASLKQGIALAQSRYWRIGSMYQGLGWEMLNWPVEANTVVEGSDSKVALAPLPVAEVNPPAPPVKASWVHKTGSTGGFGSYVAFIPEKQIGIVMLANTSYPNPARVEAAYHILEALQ
For the molecule `COC1=C[C@@H]2CC(=O)N(C2)C1C(=O)OCc1ccc([N+](=O)[O-])cc1` (stereo partly drawn) [(1S,5S)-3-Methoxy-7-oxo-1-aza-bicyclo[3.2.1]oct-3-ene-2-carboxylic acid 4-nitro-benzyl ester], the IC50 – broadly, the concentration at which inhibition is half-maximal – was found to be 25 µM.
The same measure, in the same setting: the figure for `CC[C@@H]1C(=O)N2C[C@@H]1CC(OC)=C2C(=O)OCc1ccc([N+](=O)[O-])cc1` [(1S,5R,6S)-6-Ethyl-3-methoxy-7-oxo-1-aza-bicyclo[3.2.1]oct-2-ene-2-carboxylic acid 4-nitro-benzyl ester] is 300 µM; for `CC[C@@H]1C(=O)N2C[C@@H]1CC(OC)=C2C(=O)O` [(1S,5R,6S)-6-Ethyl-3-methoxy-7-oxo-1-aza-bicyclo[3.2.1]oct-2-ene-2-carboxylic acid] it is 100 µM.
On to `COC1=C(C(=O)OCc2ccc([N+](=O)[O-])cc2)N2C[C@@H](CC2=O)C1` [(1S,5R)-3-Methoxy-7-oxo-1-aza-bicyclo[3.2.1]oct-2-ene-2-carboxylic acid 4-nitro-benzyl ester], for which the IC50 is 160 µM.
As for `COC1=C[C@@H]2CC(=O)N(C2)C1C(=O)O` (stereo partly drawn) [(1S,5S)-3-Methoxy-7-oxo-1-aza-bicyclo[3.2.1]oct-3-ene-2-carboxylic acid], the half-inhibitory concentration (IC50) worked out at 140 µM.

The target is the same in the next experiment. Kind of experiment: Time dependent inhibition of hydrolysis of nitrocefin after 5 min pre-incubation with P99 beta-lactamases (class C).
As to `CC[C@@H]1C(=O)N2C[C@@H]1C=C(OC)C2C(=O)OCc1ccc([N+](=O)[O-])cc1` (stereo partly drawn) [(1S,5R,6S)-6-Ethyl-3-methoxy-7-oxo-1-aza-bicyclo[3.2.1]oct-3-ene-2-carboxylic acid 4-nitro-benzyl ester], the midpoint of inhibition, the IC50, lay at 210 µM.
